Tests used:
[1] = tested on: CD4+ T cell clones NW2337-CD4-1 and NW2337-CD4-10; test: Peptide titration ELISPOT assay with overlapping NY-ESO-1 peptides; assay type: cell-based, human; details: peptide 10 μM to 0.1 nM pulsed onto autologous EBV-B-cells
Protocol: The CD4^+ T cells were restimulated weekly with 1 μg/ml of the peptide being used. On day 12, each CD4^+ culture was assayed for NY-ESO-1 peptide recognition, using the ELISPOT assay of lager, et al., Proc. Natl. Acad. Sci. USA, 97(9):4760-4765 (2000), incorporated by reference. To elaborate on this procedure, flat-bottomed, 96-well nitrocellulose plates were coated with 5 μg/ml of anti-interferon-gamma antibody and incubated overnight at 4° C. After washing with PBS, plates were blocked with 10% human serum (HS) for 1 hour at 37° C. Depending on the effector:target ratio used, various numbers of presensitized CD4^+ T-cells were added to each well along with 5×10^4 autologous peptide pulsed EBV transfected B cells (“EBV-B cells”) serving as target cells and incubated for 16 hours at 37° C. in TCM without IL-2. Plates were then washed extensively (6 times with a solution of 0.05% Tween 20/PBS), and biotinylated anti-interferon-gamma detection antibody was added at a concentration of 0.5 μg/ml. After incubation for 2 h at 37° C., plates were washed and incubated with ABC-AP Vectastain for 1 hour. Plates were washed again and developed with substrate (BCIP/NPT) until blue spots were visible. The number of blue spots/well represented the proportion of NY-ESO-1 specific CD4^+ T-cells/well was finally counted under the microscope.
To further identify the exact epitope required for CD4^+ T cell recognition by these two CD4^+ T cell clones, a peptide titration assay was performed using overlapping NY-ESO-1 peptides (FIG. 2) at concentrations between 10 μM and 0.1 nM, pulsed onto autologous EBV-B-cells and tested in ELISPOT assays (FIG. 3).

[2] = biological target: T1, HLA-DQB1 03011 (Homo sapiens, UniProt P01909+P01920); test: ELISPOT with peptide pulsed allogeneic EBV-B-cells of known HLA class II type (HLA restriction); assay type: cell-based
T1 construct: peptide pulsed allogeneic EBV-B-cells with known HLA class II types as stimulator cells; endogenous in cells; host or cells: allogeneic patient-derived EBV-transformed B-cell lines (NW-2078, NW-2081, NW-2395, NW-2234, NW-2337, NW-1100, MZ-1257)
Protocol: In order to determine the HLA molecule to which the novel NY-ESO-1 peptides described above bind, the NW2337 CD4^+ T-cell clones NW2337-CD4-1 and NW2337-CD4-10, were tested in ELISPOT assays using a range of peptide pulsed allogeneic EBV-B-cells with known HLA class II types as stimulator cells as indicated in the following Table. The EBV-B-cell lines were HLA typed using standard methods as described above.
The NW2337-CD4-1 clone recognized allogenic peptide pulsed EBV-B cells from patients NW-2078, NW-2081, NW-2395, NW-2234, NW-2337, NW-1100 and MZ-1257. The allogenic EBV-B cells were recognized by the T cells when pulsed exogenously with either the NY-ESO-1 p49-66 or p55-72 as observed with autologous EBV-B cells described above. […] None of the EBV-B-cells lines that were not recognized by the T cells expressed this MHC allele. […] Again the NY-ESO-1 positive MZ-1257 EBV-B-cell line was recognized with or without exogenous peptide.

T1 sequence (P01920 33-261, other chains not shown): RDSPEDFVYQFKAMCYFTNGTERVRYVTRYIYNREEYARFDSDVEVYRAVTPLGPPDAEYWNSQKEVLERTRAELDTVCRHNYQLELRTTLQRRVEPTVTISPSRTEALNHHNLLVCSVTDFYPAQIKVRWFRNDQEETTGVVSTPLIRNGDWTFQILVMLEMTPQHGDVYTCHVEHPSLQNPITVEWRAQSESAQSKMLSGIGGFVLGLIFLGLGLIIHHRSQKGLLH

P55-72: synthetic 18 mer peptide, amino acids 55-72 of NY-ESO-1 (GPGGGAPRGPHGGAASGL; UniProt P78358 55-72, looked up, fragment) [Peptide P55-72]
recognition by clone NW2337-CD4-1 [1]: recognized
recognition by clone NW2337-CD4-10 [1]: able to recognize
MHC class II allele presenting the peptide to NW2337-CD4-10 T cells ([2]; only HLA-DQB1 03011 expressing allogenic EBV-B cell lines recognized): HLA-DQB1 03011
MHC class II allele presenting the peptide to NW2337-CD4-1 T cells ([2]; only shared allele of the recognized peptide pulsed allogenic EBV-B cell lines): HLA-DQB1 03011
